Tests used:
[1] = system: Plasma; assay: Drug level in cynomolgus monkey plasma assessed as compound formation treated with [14C]brivanib alaninate at 10 mg/kg, po administered as single dose via gavage measured after 12 hrs by mass spectrometry; assay type: ADME, organism-based, Macaca fascicularis; settings: in vivo
[2] = system: Plasma; assay: Drug level in human plasma assessed as compound formation treated with [14C]brivanib alaninate at 800 mg, po administered as single dose via gavage measured after 1 hr by mass spectrometry; assay type: ADME, organism-based; settings: in vivo
[3] = system: Plasma; assay: Drug level in human plasma assessed as compound formation treated with [14C]brivanib alaninate at 800 mg, po administered as single dose via gavage measured after 2 hrs by mass spectrometry; assay type: ADME, organism-based; settings: in vivo
[4] = system: Plasma; assay: Drug level in human plasma assessed as compound formation treated with [14C]brivanib alaninate at 800 mg, po administered as single dose via gavage measured after 4 hrs by mass spectrometry; assay type: ADME, organism-based; settings: in vivo
[5] = system: Plasma; assay: Drug level in human plasma assessed as compound formation treated with [14C]brivanib alaninate at 800 mg, po administered as single dose via gavage measured after 8 hrs by mass spectrometry; assay type: ADME, organism-based; settings: in vivo
[6] = system: Plasma; assay: Drug level in human plasma assessed as compound formation treated with [14C]brivanib alaninate at 800 mg, po administered as single dose via gavage measured after 12 hrs by mass spectrometry; assay type: ADME, organism-based; settings: in vivo
[7] = Drug level in bile duct-cannulated rat bile treated with [14C]brivanib alaninate at 100 mg/kg, po administered as single dose via gavage by mass spectrometry; assay type: ADME, organism-based; settings: in vivo
[8] = Drug level in bile duct-cannulated cynomolgus monkey bile treated with [14C]brivanib alaninate at 10 mg/kg, po administered as single dose via gavage by mass spectrometry; assay type: ADME, organism-based, Macaca fascicularis; settings: in vivo
[9] = Drug excretion in Sprague-Dawley rat urine treated with [14C]brivanib alaninate at 100 mg/kg, po administered as single dose via gavage by HPLC analysis; assay type: ADME, organism-based; settings: in vivo
[10] = Drug excretion in Sprague-Dawley rat feces treated with [14C]brivanib alaninate at 100 mg/kg, po administered as single dose via gavage by HPLC analysis; assay type: ADME, organism-based; settings: in vivo
[11] = Drug excretion in cynomolgus monkey urine treated with [14C]brivanib alaninate at 10 mg/kg, po administered as single dose via gavage by HPLC analysis; assay type: ADME, organism-based, Macaca fascicularis; settings: in vivo
[12] = Drug excretion in cynomolgus monkey feces treated with [14C]brivanib alaninate at 10 mg/kg, po administered as single dose via gavage by HPLC analysis; assay type: ADME, organism-based, Macaca fascicularis; settings: in vivo
[13] = Drug excretion in human urine treated with [14C]brivanib alaninate at 800 mg, po administered as single dose […] by HPLC analysis; assay type: ADME, organism-based; settings: in vivo
[14] = Drug excretion in human feces treated with [14C]brivanib alaninate at 800 mg, po administered as single dose […] by HPLC analysis; assay type: ADME, organism-based; settings: in vivo
[15] = system: Plasma; assay: Drug level in Sprague-Dawley rat plasma assessed as compound formation treated with [14C]brivanib alaninate at 100 mg/kg, po administered as single dose via gavage measured after 1 hr by mass spectrometry; assay type: ADME, organism-based; settings: in vivo
[16] = system: Plasma; assay: Drug level in Sprague-Dawley rat plasma assessed as compound formation treated with [14C]brivanib alaninate at 100 mg/kg, po administered as single dose via gavage measured after 2 hrs by mass spectrometry; assay type: ADME, organism-based; settings: in vivo
[17] = system: Plasma; assay: Drug level in Sprague-Dawley rat plasma assessed as compound formation treated with [14C]brivanib alaninate at 100 mg/kg, po administered as single dose via gavage measured after 6 hrs by mass spectrometry; assay type: ADME, organism-based; settings: in vivo
[18] = system: Plasma; assay: Drug level in cynomolgus monkey plasma assessed as compound formation treated with [14C]brivanib alaninate at 10 mg/kg, po administered as single dose via gavage measured after 1 hr by mass spectrometry; assay type: ADME, organism-based, Macaca fascicularis; settings: in vivo
[19] = system: Plasma; assay: Drug level in cynomolgus monkey plasma assessed as compound formation treated with [14C]brivanib alaninate at 10 mg/kg, po administered as single dose via gavage measured after 2 hrs by mass spectrometry; assay type: ADME, organism-based, Macaca fascicularis; settings: in vivo
[20] = system: Plasma; assay: Drug level in cynomolgus monkey plasma assessed as compound formation treated with [14C]brivanib alaninate at 10 mg/kg, po administered as single dose via gavage measured after 4 hrs by mass spectrometry; assay type: ADME, organism-based, Macaca fascicularis; settings: in vivo
[21] = system: Plasma; assay: Drug level in cynomolgus monkey plasma assessed as compound formation treated with [14C]brivanib alaninate at 10 mg/kg, po administered as single dose via gavage measured after 6 hrs by mass spectrometry; assay type: ADME, organism-based, Macaca fascicularis; settings: in vivo
[22] = system: Plasma; assay: Drug level in human plasma assessed as compound formation treated with [14C]brivanib alaninate at 800 mg, po administered as single dose via gavage measured after 4 hrs by HPLC analysis; assay type: ADME, organism-based; settings: in vivo
[23] = system: Plasma; assay: Drug level in human plasma assessed as compound formation treated with [14C]brivanib alaninate at 800 mg, po administered as single dose via gavage measured after 8 hrs by HPLC analysis; assay type: ADME, organism-based; settings: in vivo
[24] = system: Plasma; assay: Drug level in human plasma assessed as compound formation treated with [14C]brivanib alaninate at 800 mg, po administered as single dose via gavage measured after 12 hrs by HPLC analysis; assay type: ADME, organism-based; settings: in vivo
[25] = system: Liver microsome; assay: Drug level in human liver microsomes treated with brivanib by LC-MS/MS analysis in presence of NADPH; assay type: ADME
[26] = target: Vascular endothelial growth factor receptor 2 (Homo sapiens, UniProt P35968); assay: Inhibition of human recombinant VEGFR-2
[27] = target: Fibroblast growth factor receptor 1 (Homo sapiens, UniProt P11362); assay: Inhibition of human recombinant FGFR-1
[28] = system: Plasma; assay: Drug level in Sprague-Dawley rat plasma assessed as compound formation treated with [14C]brivanib alaninate at 100 mg/kg, po administered as single dose via gavage measured after 1 hr by HPLC analysis; assay type: ADME, organism-based; settings: in vivo
[29] = system: Plasma; assay: Drug level in Sprague-Dawley rat plasma assessed as compound formation treated with [14C]brivanib alaninate at 100 mg/kg, po administered as single dose via gavage measured after 2 hrs by HPLC analysis; assay type: ADME, organism-based; settings: in vivo
[30] = system: Plasma; assay: Drug level in Sprague-Dawley rat plasma assessed as compound formation treated with [14C]brivanib alaninate at 100 mg/kg, po administered as single dose via gavage measured after 6 hrs by HPLC analysis; assay type: ADME, organism-based; settings: in vivo
[31] = system: Plasma; assay: Drug level in cynomolgus monkey plasma assessed as compound formation treated with [14C]brivanib alaninate at 10 mg/kg, po administered as single dose via gavage measured after 6 hrs by HPLC analysis; assay type: ADME, organism-based, Macaca fascicularis; settings: in vivo
[32] = system: Plasma; assay: Drug level in cynomolgus monkey plasma assessed as compound formation treated with [14C]brivanib alaninate at 10 mg/kg, po administered as single dose via gavage measured after 12 hrs by HPLC analysis; assay type: ADME, organism-based, Macaca fascicularis; settings: in vivo
[33] = system: Plasma; assay: Drug level in human plasma assessed as compound formation treated with [14C]brivanib alaninate at 800 mg, po administered as single dose via gavage measured after 1 hr by HPLC analysis; assay type: ADME, organism-based; settings: in vivo
[34] = system: Plasma; assay: Drug level in human plasma assessed as compound formation treated with [14C]brivanib alaninate at 800 mg, po administered as single dose via gavage measured after 2 hrs by HPLC analysis; assay type: ADME, organism-based; settings: in vivo
[35] = Drug level in cynomolgus monkey urine treated with [14C]brivanib alaninate at 10 mg/kg, po administered as single dose via gavage by mass spectrometry; assay type: ADME, organism-based, Macaca fascicularis; settings: in vivo
[36] = system: Homo sapiens; assay: Drug uptake in human plasma treated with [14C]brivanib alaninate assessed as AUC (0 to 12 hrs) of total radio activity at 800 mg, po administered as single oral dose by HPLC analysis; assay type: ADME, organism-based; settings: in vivo
[37] = system: Rattus norvegicus; assay: AUC (0 to 6 hrs) Sprague-Dawley rat plasma treated with [14C]brivanib alaninate at 100 mg/kg, po administered as single oral dose by HPLC analysis; assay type: ADME, organism-based; settings: in vivo
[38] = system: Cynomolgus monkey; assay: AUC (0 to 4 hrs) cynomolgus monkey plasma treated with [14C]brivanib alaninate at 10 mg/kg, po administered as single oral dose by HPLC analysis; assay type: ADME, organism-based, Macaca fascicularis; settings: in vivo
[39] = system: Homo sapiens; assay: AUC (0 to 12 hrs) human plasma treated with [14C]brivanib alaninate at 800 mg, po administered as single oral dose by HPLC analysis; assay type: ADME, organism-based; settings: in vivo
[40] = Drug excretion in bile duct-cannulated rat bile treated with [14C]brivanib alaninate at 100 mg/kg, po administered as single dose via gavage by HPLC analysis; assay type: ADME, organism-based; settings: in vivo
[41] = Drug excretion in bile duct-cannulated cynomolgus monkey bile treated with [14C]brivanib alaninate at 10 mg/kg, po administered as single dose via gavage by HPLC analysis; assay type: ADME, organism-based, Macaca fascicularis; settings: in vivo
[42] = system: Plasma; assay: Drug level in cynomolgus monkey plasma assessed as compound formation treated with [14C]brivanib alaninate at 10 mg/kg, po administered as single dose via gavage measured after 1 hr by HPLC analysis; assay type: ADME, organism-based, Macaca fascicularis; settings: in vivo
[43] = system: Plasma; assay: Drug level in cynomolgus monkey plasma assessed as compound formation treated with [14C]brivanib alaninate at 10 mg/kg, po administered as single dose via gavage measured after 2 hrs by HPLC analysis; assay type: ADME, organism-based, Macaca fascicularis; settings: in vivo
[44] = system: Plasma; assay: Drug level in cynomolgus monkey plasma assessed as compound formation treated with [14C]brivanib alaninate at 10 mg/kg, po administered as single dose via gavage measured after 4 hrs by HPLC analysis; assay type: ADME, organism-based, Macaca fascicularis; settings: in vivo
[45] = system: Cynomolgus monkey; assay: Drug uptake in cynomolgus monkey plasma treated with [14C]brivanib alaninate assessed as AUC (0 to 4 hrs) of total radio activity at 10 mg/kg, po administered as single oral dose by HPLC analysis; assay type: ADME, organism-based, Macaca fascicularis; settings: in vivo
[46] = system: Rattus norvegicus; assay: Drug uptake in Sprague-Dawley rat plasma treated with [14C]brivanib alaninate assessed as AUC (0 to 6 hrs) of total radio activity at 100 mg/kg, po administered as single oral dose by HPLC analysis; assay type: ADME, organism-based; settings: in vivo

Vascular endothelial growth factor receptor 2, sequence (P35968 whole entry): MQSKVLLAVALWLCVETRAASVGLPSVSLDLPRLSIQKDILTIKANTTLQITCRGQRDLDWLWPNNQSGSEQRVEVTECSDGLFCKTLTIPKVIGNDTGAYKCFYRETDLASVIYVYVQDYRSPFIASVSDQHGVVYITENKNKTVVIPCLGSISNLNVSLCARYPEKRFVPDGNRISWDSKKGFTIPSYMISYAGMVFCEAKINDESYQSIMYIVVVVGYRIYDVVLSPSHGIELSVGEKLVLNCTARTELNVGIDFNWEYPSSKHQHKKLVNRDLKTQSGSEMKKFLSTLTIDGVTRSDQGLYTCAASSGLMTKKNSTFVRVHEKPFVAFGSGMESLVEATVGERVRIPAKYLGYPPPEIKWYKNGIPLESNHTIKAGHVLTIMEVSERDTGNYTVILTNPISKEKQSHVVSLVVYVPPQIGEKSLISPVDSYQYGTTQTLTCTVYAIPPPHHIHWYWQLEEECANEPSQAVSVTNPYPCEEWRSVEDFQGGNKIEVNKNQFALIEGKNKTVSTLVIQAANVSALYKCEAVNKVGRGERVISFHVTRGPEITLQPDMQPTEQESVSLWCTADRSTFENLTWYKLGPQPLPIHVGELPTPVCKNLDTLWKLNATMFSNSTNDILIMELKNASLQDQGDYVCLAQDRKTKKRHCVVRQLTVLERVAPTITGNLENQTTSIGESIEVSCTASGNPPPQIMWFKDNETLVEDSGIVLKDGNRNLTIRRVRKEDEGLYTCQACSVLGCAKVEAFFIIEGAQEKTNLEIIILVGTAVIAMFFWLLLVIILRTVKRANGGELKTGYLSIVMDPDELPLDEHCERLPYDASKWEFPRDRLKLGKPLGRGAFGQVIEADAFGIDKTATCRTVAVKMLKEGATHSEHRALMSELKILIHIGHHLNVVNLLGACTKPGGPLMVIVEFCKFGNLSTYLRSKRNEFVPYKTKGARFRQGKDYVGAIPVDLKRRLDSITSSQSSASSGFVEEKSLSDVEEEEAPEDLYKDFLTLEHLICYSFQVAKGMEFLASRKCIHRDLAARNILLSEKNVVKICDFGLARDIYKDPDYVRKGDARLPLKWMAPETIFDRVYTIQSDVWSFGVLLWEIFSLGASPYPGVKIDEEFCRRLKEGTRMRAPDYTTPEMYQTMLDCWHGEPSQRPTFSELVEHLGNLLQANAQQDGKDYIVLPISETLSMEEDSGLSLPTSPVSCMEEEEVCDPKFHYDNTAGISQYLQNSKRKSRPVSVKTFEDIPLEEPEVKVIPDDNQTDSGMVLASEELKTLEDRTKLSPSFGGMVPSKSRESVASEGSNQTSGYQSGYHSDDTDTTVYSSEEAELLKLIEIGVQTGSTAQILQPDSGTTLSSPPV
Fibroblast growth factor receptor 1, sequence (P11362 whole entry): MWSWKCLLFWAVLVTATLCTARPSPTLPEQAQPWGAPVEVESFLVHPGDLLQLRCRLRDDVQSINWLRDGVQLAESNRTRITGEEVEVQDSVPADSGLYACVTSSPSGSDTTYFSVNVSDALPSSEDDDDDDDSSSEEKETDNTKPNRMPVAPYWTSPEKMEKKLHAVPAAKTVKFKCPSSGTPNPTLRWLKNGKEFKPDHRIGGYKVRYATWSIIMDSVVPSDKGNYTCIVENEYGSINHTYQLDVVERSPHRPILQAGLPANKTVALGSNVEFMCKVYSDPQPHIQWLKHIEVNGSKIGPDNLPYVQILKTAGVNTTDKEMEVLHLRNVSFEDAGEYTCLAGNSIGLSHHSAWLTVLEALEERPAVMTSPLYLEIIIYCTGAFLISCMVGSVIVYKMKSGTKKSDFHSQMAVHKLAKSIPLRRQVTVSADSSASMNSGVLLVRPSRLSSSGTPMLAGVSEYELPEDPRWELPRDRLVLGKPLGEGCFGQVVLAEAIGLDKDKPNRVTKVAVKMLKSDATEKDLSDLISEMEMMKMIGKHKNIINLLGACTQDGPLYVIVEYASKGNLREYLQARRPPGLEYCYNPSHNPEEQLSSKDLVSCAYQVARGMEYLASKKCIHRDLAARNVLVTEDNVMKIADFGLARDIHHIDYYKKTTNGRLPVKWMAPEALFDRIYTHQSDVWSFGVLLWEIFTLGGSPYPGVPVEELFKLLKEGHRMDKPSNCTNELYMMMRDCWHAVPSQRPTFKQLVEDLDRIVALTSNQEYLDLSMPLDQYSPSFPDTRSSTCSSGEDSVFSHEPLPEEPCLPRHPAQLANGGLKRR

Compound recovery [9] | Compound recovery [10] | Compound recovery [12] | Compound recovery [13] | Compound recovery [14] | Compound recovery [18] | Compound recovery [19] | Compound recovery [20] | Compound recovery [22] | Compound recovery [23] | Compound recovery [24] | IC50 [26] [nM] | IC50 [27] [nM] | Compound recovery [28] [%] | Compound recovery [29] [%] | Compound recovery [30] [%] | Compound recovery [31] | Compound recovery [32] | Compound recovery [33] | Compound recovery [34] | further results | SMILES
metabolite_not_detected | metabolite_not_detected | metabolite_not_detected | metabolite_not_detected | metabolite_not_detected | metabolite_detected | metabolite_detected | metabolite_detected | – | – | – | – | – | – | – | – | – | – | – | – | Compound recovery [1]: metabolite_detected; Compound recovery [2]: metabolite_detected; Compound recovery [3]: metabolite_detected; Compound recovery [4]: metabolite_detected; Compound recovery [5]: metabolite_detected; Compound recovery [6]: metabolite_detected; Compound recovery [7]: metabolite_detected; Compound recovery [8]: metabolite_detected; Compound recovery [11]: metabolite_not_detected; Compound recovery [15]: metabolite_detected; Compound recovery [16]: metabolite_detected; Compound recovery [17]: metabolite_detected; Compound recovery [21]: metabolite_detected | CC(=O)COc1cn2ncnc(Oc3ccc4[nH]c(C)cc4c3F)c2c1C
– | – | – | – | – | metabolite_detected | metabolite_detected | metabolite_detected | metabolite_not_detected | metabolite_not_detected | metabolite_not_detected | 78 | 760 | 1.5 | 1.2 | 1.1 | metabolite_not_detected | metabolite_not_detected | metabolite_not_detected | metabolite_not_detected | Compound recovery [25]: metabolite_detected | Cc1c(OC[C@@H](C)O)cn2ncnc(Oc3ccc4[nH]c(CO)cc4c3F)c12
0.8% | 3.5% | 35.2% | metabolite_not_detected | 26.2% | – | – | – | 3.6% | 9.8% | 10.8% | 28 | 26 | 0.5 | 1.3 | 1.5 | metabolite_not_detected | metabolite_not_detected | metabolite_not_detected | 2.3% | Compound recovery [35]: metabolite_detected; AUC metabolite/AUC radiolabel [36]: 5.5%; AUC [37]: 1628.2 ugequiv/l.hr; AUC [38]: 755.8 ugequiv/l.hr; AUC [39]: 3611.4 ugequiv/l.hr; Compound recovery [40]: 2.1%; Compound recovery [41]: 15.2%; Compound recovery [42]: 1.9%; Compound recovery [43]: 1%; Compound recovery [44]: 1.3%; AUC metabolite/AUC radiolabel [45]: 1.1%; AUC metabolite/AUC radiolabel [46]: 1.2% | Cc1cc2c(F)c(Oc3ncnn4cc(OC[C@@H](C)OS(=O)(=O)O)c(C)c34)ccc2[nH]1
